Results: ChEMBL document CHEMBL1147983

Key:
[1] = biological target: Epidermal growth factor receptor (Homo sapiens, UniProt P00533); assay: Inhibition of EGFR
Aurora kinase A = biological target: T1, Aurora kinase A (Homo sapiens, UniProt O14965)
T1 sequence (O14965 whole entry): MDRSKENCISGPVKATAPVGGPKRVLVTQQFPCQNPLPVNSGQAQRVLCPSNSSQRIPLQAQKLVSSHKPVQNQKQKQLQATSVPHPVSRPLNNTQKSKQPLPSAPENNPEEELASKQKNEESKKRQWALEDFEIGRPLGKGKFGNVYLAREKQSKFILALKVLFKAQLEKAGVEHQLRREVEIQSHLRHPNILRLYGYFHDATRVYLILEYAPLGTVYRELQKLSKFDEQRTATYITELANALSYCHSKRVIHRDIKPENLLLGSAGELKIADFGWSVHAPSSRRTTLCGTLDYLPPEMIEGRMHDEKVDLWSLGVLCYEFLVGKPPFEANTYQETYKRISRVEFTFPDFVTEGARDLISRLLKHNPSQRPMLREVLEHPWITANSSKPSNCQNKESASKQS

Sequence of Epidermal growth factor receptor (P00533 whole entry): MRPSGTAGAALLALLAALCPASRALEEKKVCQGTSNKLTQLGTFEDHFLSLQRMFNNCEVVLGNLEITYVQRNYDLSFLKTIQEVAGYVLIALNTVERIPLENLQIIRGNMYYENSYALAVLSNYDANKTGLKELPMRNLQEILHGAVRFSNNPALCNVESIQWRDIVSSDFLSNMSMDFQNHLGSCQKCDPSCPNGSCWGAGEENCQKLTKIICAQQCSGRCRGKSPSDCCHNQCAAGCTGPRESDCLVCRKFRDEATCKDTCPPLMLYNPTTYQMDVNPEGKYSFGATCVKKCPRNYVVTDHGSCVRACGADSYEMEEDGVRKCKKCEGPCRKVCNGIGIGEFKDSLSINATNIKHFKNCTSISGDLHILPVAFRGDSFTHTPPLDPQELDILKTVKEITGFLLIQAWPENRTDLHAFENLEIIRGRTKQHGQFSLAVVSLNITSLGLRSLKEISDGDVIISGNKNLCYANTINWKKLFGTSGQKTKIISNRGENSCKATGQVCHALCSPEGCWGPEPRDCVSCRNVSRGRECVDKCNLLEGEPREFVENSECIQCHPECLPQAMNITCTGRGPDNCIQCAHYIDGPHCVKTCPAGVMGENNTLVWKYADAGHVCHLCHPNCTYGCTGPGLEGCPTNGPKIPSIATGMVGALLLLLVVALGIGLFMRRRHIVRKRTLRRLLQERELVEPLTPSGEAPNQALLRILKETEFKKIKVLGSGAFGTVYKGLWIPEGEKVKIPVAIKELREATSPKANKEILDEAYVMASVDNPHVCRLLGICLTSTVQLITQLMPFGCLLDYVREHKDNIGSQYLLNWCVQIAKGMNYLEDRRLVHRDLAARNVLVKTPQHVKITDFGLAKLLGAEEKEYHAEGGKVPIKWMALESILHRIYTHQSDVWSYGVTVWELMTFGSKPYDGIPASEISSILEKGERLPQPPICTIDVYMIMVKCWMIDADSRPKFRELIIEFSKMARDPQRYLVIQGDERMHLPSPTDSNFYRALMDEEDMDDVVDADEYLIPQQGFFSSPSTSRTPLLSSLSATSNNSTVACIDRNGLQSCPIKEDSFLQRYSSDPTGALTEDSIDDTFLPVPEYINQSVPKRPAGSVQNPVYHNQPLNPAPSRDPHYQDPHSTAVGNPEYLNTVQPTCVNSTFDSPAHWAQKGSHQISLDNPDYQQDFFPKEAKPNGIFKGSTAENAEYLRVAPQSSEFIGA

| IC50 [1] [nM] | IC50 (Aurora kinase A) [nM] | SMILES |
| --- | --- | --- |
| > 10000 |  | O=C(Nc1cccc(Nc2nccc(Nc3cccc(C(F)(F)F)c3)n2)c1)C1CC1 [ANILINOPYRIMIDINE1] |
| 21 | > 10000 | O=C(Nc1cccc(Nc2cc(Nc3cccc(C(F)(F)F)c3)ncn2)c1)C1CC1 |
| > 10000 | 931 | O=C(Nc1cccc(Nc2ccnc(Nc3cccc(C(F)(F)F)c3)n2)c1)C1CC1 |
